Source: patent US7524832B2, “Combretastatin A-4 phosphate prodrug mono-and di-organic amine salts, mono-and di-amino acid salts and mono-and di-amino acid ester salts” (priority 2000, dated 2009)
Structures can show the parent of a compound that is named as a salt.

Columns and labels:
[1] = hygroscopicity (moisture sorption/desorption); format: physicochemical; conditions: 25° C., ambient and high humidity conditions
Method: The data was obtained using a VTI Model MB-300W Moisture balance with relative humidity levels from 10% to 90% in increments of 10%. The maximum equilibration time at each humidity was set at 4 hours.
As used herein, the term “nonhygroscopic”, in reference to a compound, preferably denotes no measurable weight gain per weight of compound as measured above.
This was an unexpected result, because other salt forms of CA4P free acid are hygroscopic under similar conditions. Variable relative humidity-X-ray diffraction (“RH-XRD”) experiments have shown that the powder pattern remains unchanged on exposure to different humidities at 25° C.

[2] = solid-state chemical stability; format: physicochemical; conditions: ambient and accelerated conditions of temperature and humidity
physchem = conditions: 25 °C, thermodynamic from solid
[3] = tested on: murine L1210 lymphocytic leukemia cell line; conditions: NCI murine L1210; cited from earlier work
[4] = tested on: murine P338 lymphocytic leukemia cell line; conditions: NCI murine P338; cited from earlier work
microtubulin assembly = conditions: cited from earlier work
[5] = cited from earlier work

| SMILES | hygroscopicity [1] | chemical stability in the solid-state [2] | solubility (physchem; pH 4.8, water) | solubility (physchem; pH 8.2, aqueous buffer) | activity against L1210 lymphocytic leukemia cell line [3] | activity against P338 lymphocytic leukemia cell line [4] | inhibition of microtubulin assembly (microtubulin assembly) | solubility in water [5] |
| --- | --- | --- | --- | --- | --- | --- | --- | --- |
| COc1ccc(/C=C\c2cc(OC)c(OC)c(OC)c2)cc1OP(=O)(O)O [CA4P mono TRIS salt, CA4P mono-tromethamine salt] | practically nonhygroscopic | good chemical stability | 3.37 mg/mL | 191 mg/mL | – | – | – | – |
| COc1ccc(/C=C\c2cc(OC)c(OC)c(OC)c2)cc1O [combretastatin A-4] | – | – | – | – | significantly active | significantly active | potent inhibitor | essentially insoluble in water |
